How the values were obtained:
[1] = target: T1, RyR1 receptor (Oryctolagus cuniculus, UniProt P11716); test: Tritiated ryanodine binding assay on heavy sarcoplasmic reticulum vesicles; details: 100 nM complex
T1 construct: from tissue; host or cells: heavy sarcoplasmic reticulum vesicles (skeletal muscle implied)
Protocol: The heavy sarcoplasmic reticulum vesicles are prepared according to the method of Kim et al. (J. Biol. Chem., 1983, 258, 9662-9668) modified as described in Marty et al. (J. Biol. Chem., 2000, 275, 8206-8212). The protein concentration is measured by the Biuret method.
The heavy sarcoplasmic reticulum vesicles (1 mg/ml) are incubated at 37° C. for 2 hours and 30 min, in reaction buffer comprising 5 nM [^3H]-ryanodine, 150 mM NaCl, 2 mM EGTA, 2 mM Ca^2+ (pCa=5) and 20 mM Hepes, pH 7.4. Maurocalcine, the maurocalcine-derived peptides and their biotinylated derivatives are added before the addition of the heavy sarcoplasmic reticulum vesicles. The [^3H]-ryanodine bound to the heavy sarcoplasmic vesicles is measured by filtration through Whatmann GF/B filters, followed by three washes with 5 ml of ice-cold washing buffer (150 mM NaCl, 20 mM Hepes, pH 7.4). The [^3H]-ryanodine retained on the filters is measured by liquid scintillation. The nonspecific binding is measured in the presence of […] ryanodine (20 μM). The results are given in the form of means±standard deviation. Each experiment is carried out in triplicate and repeated at least twice.

[2] = system: CA1 hippocampal neurons, HEK293 cells, L6 cells; test: Cell penetration of biotinylated peptide/Strept-Cy3 complexes in various cell cultures, confocal microscopy of fixed cells; type: cell-based; details: 100 nM, 30 min, ambient temperature
Protocol: Soluble streptavidin-cyanin 3 and streptavidin-cyanin 5 (Strept-Cy^3 and Strept-Cy^5, AMERSHAM) were mixed with 4 molar equivalents of biotinylated maurocalcine (1 mM) or biotinylated maurocalcine-derived peptide, in phosphate buffer (PBS, in mM: 136 NaCl, 1.47 Na2HPO4, 2.6 KCl, 1 CaCl2, 0.5 MgCl2, pH 7.2), for 2 hours at 37° C. and in the dark.
The cells were incubated with maurocalcine and the derived peptides, biotinylated and complexed with streptavidin-cyanin 3 or with streptavidin-cyanin 5, at the final concentration of 100 nM in PBS, in the dark and at ambient temperature, for 30 minutes to 1 hour. […] The Alexa-488 and Cy3 or propidium iodide (PI) fluorescences were excited sequentially and then recorded. The Cy3 fluorescence was excited using a 543 nm helium-neon laser beam and the fluorescence emission was recorded between 554 nm and 625 nm. […]
The primary rat hippocampal neurons and the cells of the HEK293 line and the L6 line (before and after differentiation) are incubated for 30 min at ambient temperature, with 100 nM or 333 nM of maurocalcine-derived peptide, biotinylated and complexed with streptavidin-Cy3, or else 100 nM or 333 nM of MCab/Strept-Cy3, as a control. The cells are fixed and the fluorescence is observed by confocal microscopy.

[3] = system: undifferentiated L6 cells; test: Penetration kinetics in live undifferentiated L6 cells, confocal microscopy; type: cell-based, rat
Protocol: The L6 rat myogenic cell line (clone C5, EACC) is cultured in DMEM medium supplemented with 15% fetal bovine serum (LIFE TECHNOLOGIES) and 1% penicillin-streptomycin (Invitrogen).
The live cells were incubated with maurocalcine and the derived peptides, biotinylated and complexed with streptavidin-cyanin 3, at the final concentration of 100 nM in PBS, at ambient temperature in freshly changed culture medium, on the platform of an upright microscope (Nikon Eclipse 600 FN, equipped with a water-immersion objective (×40); aperture 0.8) and a confocal head (Nikon PCM 2000), or else with a Leica TCS-SP2 microscope, equipped with an objective (×100), according to the “XYZt” mode.
The penetration kinetics of the maurocalcine and of the derived peptides, biotinylated in complex with streptavidin-Cy3, was initiated by injecting 100 nM of the complex into the culture medium. The Cy3 fluorescence was excited by means of a 543 nm wavelength of an […] laser. The light emission was filtered (595±35 nm filter). The images were recorded and analyzed using the EZ2000 software (Nikon). The quantitative analysis of the relative fluorescence was carried out on the overall signal of all the cells, using appropriate software (Leica).

[4] = system: live cells; test: Flow cytometry analysis of cellular penetration at increasing extracellular KCl (membrane potential); type: cell-based; details: for mean fluorescence value: 100 nM complex, 1 hour
Protocol: The MCab-Strept-Cy^5 complexes were prepared in solutions containing various NaCl/KCl ratios (composition in mM: 145 to 5 NaCl, 5 to 145 KCl, 2.5 CaCl2, 1.2 MgCl2, 10 glucose, 10 HEPES, pH 7.4).
The cells were washed twice with the NaCl/KCl solution used to prepare the complexes, and then incubated with maurocalcine and the derived peptides, which are biotinylated and complexed with streptavidin-cyanin 3 (MCab-Strept-Cy^3 complexes), at the final concentration of 100 nM in the same NaCl/KCl solution, in the dark and at ambient temperature for 1 hour. After 2 washes in the same NaCl/KCl buffer, the cyanin 3 fluorescence was analyzed on live cells, using a flow cytometer (FACScalibur, BECTON DICKINSON). The data were recorded and analyzed using appropriate software (CellQuest, BD BIOSCIENCES). The live cells were sorted according to their size and their granulosity (forward/side scattering), over a total of 10 000 events.

T1 sequence (P11716 whole entry): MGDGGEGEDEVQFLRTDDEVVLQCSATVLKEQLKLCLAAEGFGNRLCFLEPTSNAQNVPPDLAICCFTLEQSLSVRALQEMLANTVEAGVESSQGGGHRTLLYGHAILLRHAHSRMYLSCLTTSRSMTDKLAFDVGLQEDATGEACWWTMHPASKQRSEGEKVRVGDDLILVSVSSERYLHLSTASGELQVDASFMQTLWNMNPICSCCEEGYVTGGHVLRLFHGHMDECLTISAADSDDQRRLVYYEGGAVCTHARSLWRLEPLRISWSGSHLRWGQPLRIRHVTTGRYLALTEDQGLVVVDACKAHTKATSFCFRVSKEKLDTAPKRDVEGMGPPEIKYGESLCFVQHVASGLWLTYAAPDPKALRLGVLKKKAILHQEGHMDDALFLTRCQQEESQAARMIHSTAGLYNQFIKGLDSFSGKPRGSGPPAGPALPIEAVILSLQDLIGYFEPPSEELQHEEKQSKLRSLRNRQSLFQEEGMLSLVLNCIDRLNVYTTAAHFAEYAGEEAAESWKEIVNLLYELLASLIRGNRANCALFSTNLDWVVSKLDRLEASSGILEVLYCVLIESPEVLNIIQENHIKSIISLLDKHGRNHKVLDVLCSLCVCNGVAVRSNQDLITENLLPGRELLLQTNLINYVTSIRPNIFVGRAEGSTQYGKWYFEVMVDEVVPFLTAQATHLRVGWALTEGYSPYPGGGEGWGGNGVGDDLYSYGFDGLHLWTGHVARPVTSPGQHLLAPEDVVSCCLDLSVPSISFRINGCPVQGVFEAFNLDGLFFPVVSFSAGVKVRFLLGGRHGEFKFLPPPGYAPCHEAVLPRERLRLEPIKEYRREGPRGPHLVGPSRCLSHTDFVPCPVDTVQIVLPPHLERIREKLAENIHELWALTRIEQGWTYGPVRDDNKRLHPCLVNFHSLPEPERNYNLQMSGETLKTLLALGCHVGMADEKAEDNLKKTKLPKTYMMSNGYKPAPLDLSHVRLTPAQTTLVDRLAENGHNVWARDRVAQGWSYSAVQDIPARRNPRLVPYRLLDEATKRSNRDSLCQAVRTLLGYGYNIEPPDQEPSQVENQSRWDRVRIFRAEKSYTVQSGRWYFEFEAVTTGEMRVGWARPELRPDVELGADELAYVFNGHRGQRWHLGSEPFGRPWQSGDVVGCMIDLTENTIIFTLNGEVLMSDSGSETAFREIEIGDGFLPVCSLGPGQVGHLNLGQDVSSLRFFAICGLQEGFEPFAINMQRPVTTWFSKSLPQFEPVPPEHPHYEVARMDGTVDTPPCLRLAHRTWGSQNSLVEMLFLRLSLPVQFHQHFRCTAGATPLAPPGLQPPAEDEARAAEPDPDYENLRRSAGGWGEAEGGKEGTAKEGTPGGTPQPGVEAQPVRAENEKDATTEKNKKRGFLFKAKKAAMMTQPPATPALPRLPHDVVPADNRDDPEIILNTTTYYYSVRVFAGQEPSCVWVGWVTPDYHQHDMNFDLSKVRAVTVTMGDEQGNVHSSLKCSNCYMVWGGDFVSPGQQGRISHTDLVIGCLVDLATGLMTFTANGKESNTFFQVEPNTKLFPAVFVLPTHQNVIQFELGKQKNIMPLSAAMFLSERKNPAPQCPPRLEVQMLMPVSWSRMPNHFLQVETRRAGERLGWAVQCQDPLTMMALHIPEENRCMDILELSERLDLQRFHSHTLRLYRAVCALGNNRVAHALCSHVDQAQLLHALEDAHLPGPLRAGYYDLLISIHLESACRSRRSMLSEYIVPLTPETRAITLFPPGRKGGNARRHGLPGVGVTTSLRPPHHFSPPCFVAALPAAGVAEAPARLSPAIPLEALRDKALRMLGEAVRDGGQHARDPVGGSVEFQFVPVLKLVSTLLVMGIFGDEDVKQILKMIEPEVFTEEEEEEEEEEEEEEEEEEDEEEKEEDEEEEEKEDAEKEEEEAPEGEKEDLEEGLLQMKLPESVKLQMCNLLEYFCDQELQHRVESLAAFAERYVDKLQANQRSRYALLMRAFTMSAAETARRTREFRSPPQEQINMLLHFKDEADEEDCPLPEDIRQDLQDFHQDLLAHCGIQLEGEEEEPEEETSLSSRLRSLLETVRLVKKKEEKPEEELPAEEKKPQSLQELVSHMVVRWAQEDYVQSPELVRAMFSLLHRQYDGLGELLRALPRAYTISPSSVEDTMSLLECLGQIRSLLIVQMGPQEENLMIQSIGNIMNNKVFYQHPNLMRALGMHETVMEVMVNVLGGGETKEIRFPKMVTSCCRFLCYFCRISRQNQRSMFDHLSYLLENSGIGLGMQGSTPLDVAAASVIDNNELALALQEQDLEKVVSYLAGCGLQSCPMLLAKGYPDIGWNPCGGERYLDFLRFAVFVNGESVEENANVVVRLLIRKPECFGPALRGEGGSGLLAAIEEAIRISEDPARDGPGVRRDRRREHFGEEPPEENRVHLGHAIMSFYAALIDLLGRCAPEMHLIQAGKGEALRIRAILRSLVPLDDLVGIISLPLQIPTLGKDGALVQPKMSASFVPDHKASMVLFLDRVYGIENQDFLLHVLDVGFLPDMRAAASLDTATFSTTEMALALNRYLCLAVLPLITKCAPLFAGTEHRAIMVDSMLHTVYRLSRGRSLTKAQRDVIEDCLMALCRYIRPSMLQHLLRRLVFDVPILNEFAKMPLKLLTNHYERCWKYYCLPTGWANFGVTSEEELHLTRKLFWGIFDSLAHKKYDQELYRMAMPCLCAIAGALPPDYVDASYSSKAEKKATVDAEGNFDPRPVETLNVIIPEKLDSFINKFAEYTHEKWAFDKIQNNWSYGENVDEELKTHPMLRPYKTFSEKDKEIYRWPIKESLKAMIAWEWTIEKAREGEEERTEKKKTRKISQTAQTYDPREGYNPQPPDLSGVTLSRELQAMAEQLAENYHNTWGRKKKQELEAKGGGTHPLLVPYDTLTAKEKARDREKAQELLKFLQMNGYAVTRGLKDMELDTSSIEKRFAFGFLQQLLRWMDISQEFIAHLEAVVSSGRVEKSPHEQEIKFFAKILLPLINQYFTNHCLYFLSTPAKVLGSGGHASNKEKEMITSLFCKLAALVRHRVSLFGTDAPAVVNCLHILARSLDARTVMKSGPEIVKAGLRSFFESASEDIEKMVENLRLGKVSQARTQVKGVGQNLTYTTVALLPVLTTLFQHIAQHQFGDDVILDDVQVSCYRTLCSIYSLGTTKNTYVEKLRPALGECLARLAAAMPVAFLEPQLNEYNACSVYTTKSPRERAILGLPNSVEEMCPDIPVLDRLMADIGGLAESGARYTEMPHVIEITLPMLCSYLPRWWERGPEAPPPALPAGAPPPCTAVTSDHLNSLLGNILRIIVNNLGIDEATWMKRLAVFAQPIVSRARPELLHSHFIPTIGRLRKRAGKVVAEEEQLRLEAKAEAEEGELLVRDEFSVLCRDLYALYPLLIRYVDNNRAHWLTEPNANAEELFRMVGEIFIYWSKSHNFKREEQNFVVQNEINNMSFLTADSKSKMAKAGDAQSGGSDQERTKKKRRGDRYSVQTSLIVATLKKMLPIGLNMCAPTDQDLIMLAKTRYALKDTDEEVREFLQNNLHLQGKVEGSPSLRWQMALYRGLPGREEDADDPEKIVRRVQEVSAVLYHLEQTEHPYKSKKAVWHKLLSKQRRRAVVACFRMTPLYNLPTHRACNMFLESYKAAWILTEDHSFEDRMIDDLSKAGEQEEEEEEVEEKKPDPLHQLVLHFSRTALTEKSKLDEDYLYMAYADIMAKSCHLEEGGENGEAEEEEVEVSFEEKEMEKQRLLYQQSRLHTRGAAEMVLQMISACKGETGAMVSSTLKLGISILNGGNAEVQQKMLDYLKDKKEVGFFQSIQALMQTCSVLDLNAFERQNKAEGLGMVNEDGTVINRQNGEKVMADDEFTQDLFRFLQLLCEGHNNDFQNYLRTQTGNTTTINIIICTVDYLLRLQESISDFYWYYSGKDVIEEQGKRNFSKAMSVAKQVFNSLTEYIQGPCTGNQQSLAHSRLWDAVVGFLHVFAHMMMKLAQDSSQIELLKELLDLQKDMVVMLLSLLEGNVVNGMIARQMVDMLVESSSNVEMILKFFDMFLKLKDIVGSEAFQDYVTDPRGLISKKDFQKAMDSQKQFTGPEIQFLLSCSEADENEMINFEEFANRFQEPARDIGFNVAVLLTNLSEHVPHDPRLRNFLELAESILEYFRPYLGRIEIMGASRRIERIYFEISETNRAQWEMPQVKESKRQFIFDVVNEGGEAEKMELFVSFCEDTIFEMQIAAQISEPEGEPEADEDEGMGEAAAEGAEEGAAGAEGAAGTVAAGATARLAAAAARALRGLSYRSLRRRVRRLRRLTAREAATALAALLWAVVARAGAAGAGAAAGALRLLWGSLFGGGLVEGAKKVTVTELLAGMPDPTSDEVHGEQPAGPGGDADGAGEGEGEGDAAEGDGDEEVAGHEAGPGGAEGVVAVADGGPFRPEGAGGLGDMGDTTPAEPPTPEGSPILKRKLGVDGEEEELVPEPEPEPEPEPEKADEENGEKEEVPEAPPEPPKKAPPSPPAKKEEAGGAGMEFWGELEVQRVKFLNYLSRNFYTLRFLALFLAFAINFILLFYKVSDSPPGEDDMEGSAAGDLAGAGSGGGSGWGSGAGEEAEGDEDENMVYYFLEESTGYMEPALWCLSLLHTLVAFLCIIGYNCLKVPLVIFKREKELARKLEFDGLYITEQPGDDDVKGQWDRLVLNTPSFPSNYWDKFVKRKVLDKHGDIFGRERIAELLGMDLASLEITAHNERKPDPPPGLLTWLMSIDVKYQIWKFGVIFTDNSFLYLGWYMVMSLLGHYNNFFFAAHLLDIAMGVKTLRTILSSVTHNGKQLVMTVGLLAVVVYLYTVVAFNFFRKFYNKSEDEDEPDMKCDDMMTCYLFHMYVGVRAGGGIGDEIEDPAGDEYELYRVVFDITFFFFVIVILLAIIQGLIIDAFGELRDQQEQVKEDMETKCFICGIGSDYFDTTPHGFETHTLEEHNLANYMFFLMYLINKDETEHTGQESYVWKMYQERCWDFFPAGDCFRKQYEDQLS

## MCab/Strept-Cy3: biotinylated maurocalcine, complexed with cyanin-3-labeled streptavidin
[1]
  stimulation of [3H]-ryanodine binding to heavy sarcoplasmic reticulum vesicles: conserve the ability to stimulate [^3H]-ryanodine binding
[2]
  Cy3 labeling of cells (transduction): strong uniform labeling of the plasma membrane and of the cytoplasm of all the cells
[3]; 100 nM
  time of fluorescence peak in the plasma membrane (ROI-1): 10 min
[3]; 100 nM in extracellular medium
  time at which labeling appears after addition: 3 min
[4]; 5 mM KCl
  mean fluorescence value: 145
[4]; 125 mM KCl
  mean fluorescence value: 40
[4]; 145 mM KCl
  mean fluorescence value: 17
[4]; fit y=y0+a×x
  decreasing slope a (linear regression of fluorescence vs KCl concentration): −0.72
  maximum fluorescence y0 (linear regression vs KCl concentration): 139.5

— patent US8207293B2, “Peptides derived from maurocalcine used as vectors for intracellular addressing of molecules of interest” (Commissariat a l'Energie Atomique, priority 2004, dated 2012)
